{
  "source": "patent US9474793B2",
  "about": "“Vaccines and methods for prevention and treatment of drug-resistant HIV-1 and hepatitis B virus” (The United States of America, as represented by the …, priority 2005, dated 2016)",
  "key": {"[1]": {"tested_on": "RT-WT peptide-pulsed C1R.AAD target cells", "test": "51Cr-release cytotoxicity assay: recognition of RT-WT by peptide-specific CTL lines from HHD-transgenic mice", "details": "FIGS. 3-5; E/T ratio 10:1", "method": "Mice more than eight weeks of age were immunized subcutaneously in the base of the tail with 100 μl of an emulsion containing 1:1 incomplete Freund's adjuvant (IFA) and PBS solution with antigens and cytokines (50 nmol CTL epitope, 50 nmol HBV core 128-140 helper epitope, 5 μg of IL-12 and 5 μg of granulocyte-macrophage colony stimulating factor). Mice were boosted two weeks later. Spleens were removed 10-14 days after the boost. Immune spleen cells (2.5×10^6/well) were stimulated in 24-well plates with autologous spleen cells (5×10^6/well) pulsed for 2 h with 10 μM CTL epitope peptide in CTM supplemented with 10% T-Stim (Collaborative Biochemical Products, Bedford, Mass.). Following more than 4 in vitro stimulations with peptide-pulsed syngeneic spleen cells, CTL lines were maintained by weekly restimulation of 1×10^6 CTL/well with 4×10^6 peptide pulsed irradiated (3,300 rads) gynogeneic spleen cells as feeders, or by weekly stimulation of 1×10^6 CTL/well with 3.8×10^6 peptide pulsed irradiated C57BL/6 spleen cells and 1-3×10^5 peptide pulsed and irradiated (15,000 rad) Jurkat-A2K^b transfectant cells.\n(§1) CTL activity was measured using a 4-hr assay with ^51Cr-labeled target cells (Okazaki et al., J Immunol 2003, 171(5):2548-2555). Target cells (10^6) were pulsed in 100 μl of CTM and 150 μCi ^51Cr for 1.5 hr, washed three times, and added at 3,000 cells/well to the 96-well round-bottom plates with different peptide concentrations. Effector cells were introduced 2 h later. Then, the supernatants were harvested and counted following an additional 4-hr incubation. The percentage of specific ^51Cr release was calculated as 100×(experimental release−spontaneous release)/(Maximum release−spontaneous release). Spontaneous release was determined from target cells incubated in the absence of effector cells. Maximum release was determined in the presence of 0.1 M HCl. C1R.AAD cell lines served as target cells."}, "[2]": {"assay_type": "physicochemical", "details": "mixed with Montanide ISA-51 (300 μg dose)", "from_the_text": "When the CTL peptide […] (SEQ ID NO:6; […]"}, "[3]": {"assay_type": "physicochemical", "from_the_text": "CTL peptides of the present invention, including the CTL peptide […] (SEQ ID NO:6; […]. The CTL peptide […] (SEQ ID NO:6; […]. The recommended storage of intact vials of the CTL peptide […] (SEQ ID NO:6; […].\nFurther, the CTL peptide […]"}, "HIV": {"tested_on": "HIV", "details": "patients infected with HIV; cited from earlier work"}, "[4]": {"details": "cited from earlier work"}, "HLA-A2.1 molecules [5]": {"molecular_target": "T1, HLA-A2.1 molecules (Homo sapiens, UniProt P04439, D140Y/D185E/D98H/E176V/E277Q/G131W/G231S/I119V/I121R/I166T/I218V/L300P/L318F/N151K/N90K/P208A/P217A/Q86G/Q94H/R138H/R169H/T345S)", "assay_type": "binding"}, "RT-WT specific CTL lines": {"tested_on": "RT-WT specific CTL lines", "test": "Recognition of RT-variant peptides by RT-WT-specific CTL lines (FIG. 2)", "details": "E/T ratio 10:1", "method": "as §1"}, "HLA-A2.1 molecules [6]": {"molecular_target": "T1, HLA-A2.1 molecules", "details": "Okazaki et al. 2003; cited from earlier work"}},
  "note": "Where “and” joins values, the source holds several entries; their conditions need not be identical. Identical values can stand only once. Entries after “also recorded” stand apart in the source; their conditions may differ. Like-named read-outs stand apart in the source and are kept apart here.",
  "data": [
    {"substance": "VLYQYVDDV", "values": [
      {"measurement": "Recognition of RT-WT by the peptide-specific CTL line", "setting": "[1]", "result": "to some extent; also recorded: slightly weaker than that of RT-2L9V specific CTL"},
      {"measurement": "physical stability of the emulsion", "setting": "[2]", "result": 3, "unit": "h"},
      {"measurement": "freeze-thaw-freeze cycles through which the peptide is stable", "setting": "[3]", "result": "at least two"},
      {"measurement": "degradation by HPLC", "setting": "[3]; 1.6 mg/ml, 4° C. and 22° C., by 7 days", "result": "No degradation"},
      {"measurement": "loss by adsorption onto the borosilicate glass vial", "setting": "[3]; at the concentrations to be used for vialing", "result": "not significantly lost"},
      {"measurement": "storage stability", "setting": "[3]; controlled room temperature (15° C.-30° C.)", "result": 3, "unit": "months"},
      {"measurement": "storage stability", "setting": "[3]; freezer (−10° C. to −25° C. and −70° C.)", "result": "at least 18 months"},
      {"measurement": "storage stability", "setting": "[3]; refrigerator (2° C.-8° C.)", "result": "at least 9 months"}
    ]},
    {"substance": "sargramostim: glycosylated, recombinant human sargramostim; position 23 arginine replaced with leucine, expressed in yeast", "values": [
      {"measurement": "effect on viral load", "setting": "HIV", "result": "slight decrease"},
      {"measurement": "impact on the CD4 count", "setting": "HIV", "result": "little impact"},
      {"measurement": "safety", "setting": "HIV", "result": "safe"},
      {"measurement": "stability after reconstitution", "setting": "[4]; 250 μg vial reconstituted with bacteriostatic water for injection, refrigerator", "result": 20, "unit": "days"},
      {"measurement": "stability after initial entry into the vial", "setting": "[4]; 500 μg/ml liquid", "result": "up to 20 days"}
    ]},
    {"substance": "YLYQYVDDV", "values": [
      {"measurement": "FI0.5 (concentration required to give an FI of 0.5)", "setting": "HLA-A2.1 molecules [5]", "result": "0.245 µM and 0.176 to 0.245 µM"}
    ]},
    {"substance": "VIYQYMDDL (conserved HLA-A2-restricted cytotoxic T lymphocyte (CTL) epitope in human immunodeficiency virus 1 (HIV-1) drug-sensitive wild-type reverse transcriptase (RT-WT), residues 179-187)", "values": [
      {"measurement": "Recognition of the peptide by RT-WT-specific CTL", "setting": "RT-WT specific CTL lines", "result": "recognized"}
    ]},
    {"substance": "VLYQYMDDV [RT-2L9V]", "values": [
      {"measurement": "Recognition of RT-WT by the peptide-specific CTL line", "setting": "[1]", "result": "most strongly among all four CTL types"},
      {"measurement": "binding ability to HLA-A2 relative to RT-WT", "setting": "HLA-A2.1 molecules [6]", "result": "approximately 8 fold"}
    ]}
  ]
}
